Measured values as given in patent US20030148267A1, “Screening assay for hepatitis C virus antiviral agents” (priority 2001, published 2003).
Where “and” joins values, the source holds several entries; their conditions need not be identical. Equal values may be shown once. Entries after “also recorded” stand apart in the source; their conditions may differ.

How the values were obtained:
HCV (−) RNA synthesis = experiment: HCV (−) strand RNA synthesis in binary HCV expression system (RNase protection assay, strand-specific RT-PCR); assay type: cell-based, hepatitis C virus (genotype 1a, strain H77); conditions: for HCV (−) strand results with other timing of the drug: drug given 0 and 12 hours before vTF7-3 infection instead of 20 hours; for HCV replicative strand synthesis: the two RBV doses (50 and 400)
HSV-1 = HSV-1 plaque formation in CV-1 cells; assay type: cell-based; conditions: the two RBV doses (50 and 400); listed as RBV
HCV RNA = HCV RNA quasispecies analysis (mutation rate) in transfected/infected CV-1 cells; assay type: cell-based, hepatitis C virus (genotype 1a, strain H77); design: nucleotide substitutions / substitutions / error generation / dN/dS (nonsynonymous/synonymous mutation): unit of the concentration uncertain
Procedure: Twenty-four hours post-vvT7, cells were lysed and RNA was extracted by TRIzol (GIBCO/BRL), DNase I-treated (Roche Molecular Biochemicals), and phenol-chloroform extracted.
RT-PCR was performed for the 5′UTR, core, E2-HVR1, NS5A and NS5B regions using region-specific primers: […]
RT was carried out on extracted RNA using AMV reverse transcriptase (Perkin-Elmer) using standard conditions. 25 cycles of PCR were carried out using 25 pmol each of the relevant sense and antisense primers, 0.5 mM of each dNTP, 1.5 mM MgCl2, and 0.5 units of Taq polymerase (Perkin-Elmer).
Amplicons were cloned using the TOPO-PCR system (Invitrogen). Between 11 and 20 individual transformants corresponding to each region were sequenced bidirectionally by the ABI Prism automated sequencer, using primers flanking the insert. Synonymous and non-synonymous substitutions at variance from the parent pT7flHCV-Rz and pT7HCVDBglII-Rz sequences were determined and error generation rates calculated as nucleotide substitutions/total nucleotides sequenced. Sequences were aligned, and quasispecies diversity rates were compared between groups by using the statistical package SPSS 9.0.

[1] = RBV 50, E2 (HVR-1), listed as REV

NC12CC3CC(CC(C3)C1)C2 [amantadine]
HCV (−) strand synthesis (HCV (−) RNA synthesis; doses 1-100 mg/well): no activity; also recorded: Neither ribavirin nor amantadine demonstrated direct activity
HCV (−) strand results with other timing of the drug (HCV (−) RNA synthesis): unchanged

NC(=O)c1ncn([C@@H]2O[C@H](CO)[C@@H](O)[C@H]2O)n1 [ribavirin]
additional RNA inhibitory effects (HCV (−) RNA synthesis; RBV added to IFN): not seen
HCV (−) RNA synthesis (HCV (−) RNA synthesis; doses of 10-200 mg/well): No inhibitory effect; also recorded: Neither ribavirin nor amantadine demonstrated direct activity
HCV (−) strand results with other timing of the drug (HCV (−) RNA synthesis): unchanged
HCV replicative strand synthesis (HCV (−) RNA synthesis): no effect
HCV replicative strand synthesis (HCV (−) RNA synthesis; listed as RBV): no direct decrease
HSV-1 plaque formation in CV-1 cells (HSV-1): activity against HSV-1
error generation throughout the viral genome compared with the lower dose (HCV RNA; 400 mM vs 50 mM, differences not statistically significant): to a lesser degree than that observed at the lower dose
nucleotide substitutions (HCV RNA; 50 (unit uncertain), HVR-1 region): 15
substitutions (HCV RNA; 50 (unit uncertain), core region): 12
error generation (HCV RNA; 400 (unit uncertain), across all regions): 0.6-1.2 ×10^−3
Total Mutations (all regions) (HCV RNA; RBV 50): 54
ERROR GEN RATE (HCV RNA; RBV 50, 5′UTR): 0.7 X 10^−3
MUTANT CLONES (%) (HCV RNA; RBV 50, 5′UTR): 3(20%)
NONSYN/SYN SUBS (HCV RNA; RBV 50, 5′UTR): 0/3
Transition Mutations T to C (HCV RNA; RBV 50, 5′UTR): 2
NONSYN/SYN SUBS (HCV RNA; RBV 50, CORE): 8/4
Transition Mutations C to T (HCV RNA; RBV 50, CORE): 2
Transition Mutations T to C (HCV RNA; RBV 50, CORE): 2
insertions (resulting in stop codons) (HCV RNA; RBV 50, CORE): 2 insertions
ERROR GEN RATE (HCV RNA; RBV 50, CORE, listed as RBV): 1.9^1 X 10^−3
ERROR GEN RATE (HCV RNA; RBV 50, CORE, listed as REV): 1.9^2 X 10^−3
MUTANT CLONES (%) (HCV RNA; RBV 50, CORE, listed as REV): 7(50%)
nt-insertions (HCV RNA; RBV 50, CORE, listed as REV): 4 nt-insertions
NONSYN/SYN SUBS (HCV RNA; RBV 50, E2): 11/4
Transition Mutations A to G (HCV RNA; RBV 50, E2): 4
Transition Mutations C to T (HCV RNA; RBV 50, E2): 1
Transition Mutations G to A (HCV RNA; RBV 50, E2): 1
Transition Mutations T to C (HCV RNA; RBV 50, E2): 6
insertions (resulting in stop codons) (HCV RNA; RBV 50, E2): 2 insertions
ERROR GEN RATE (HCV RNA; RBV 50, E2 (HVR-1), listed as RBV): 1.7 X 10^−3 and 1.5^2 X 10^−3
ERROR GEN RATE (HCV RNA; [1]): 1.5 X 10^−3
MUTANT CLONES (%) (HCV RNA; [1]): 12(60%)
nt-deletion (HCV RNA; [1]): 1 nt-deletion
nt-insertion (HCV RNA; [1]): 1 nt-insertion
ERROR GEN RATE (HCV RNA; RBV 50, NS5A): 2.5^3 X 10^−3
MUTANT CLONES (%) (HCV RNA; RBV 50, NS5A): 5(20%)
NONSYN/SYN SUBS (HCV RNA; RBV 50, NS5A): 12/0
Transition Mutations A to G (HCV RNA; RBV 50, NS5A): 1
Transition Mutations C to T (HCV RNA; RBV 50, NS5A): 1
ERROR GEN RATE (HCV RNA; RBV 50, NS5B): 1.7 X 10^−3
Transition Mutations A to G (HCV RNA; RBV 50, NS5B): 2
Transition Mutations C to T (HCV RNA; RBV 50, NS5B): 1
Transition Mutations G to A (HCV RNA; RBV 50, NS5B): 4
MUTANT CLONES (%) (HCV RNA; RBV 50, NS5B, listed as RBV): 7(39%)
NONSYN/SYN SUBS (HCV RNA; RBV 50, NS5B, listed as RBV): 9/3
NONSYN/SYN SUBS (HCV RNA; RBV 50, NS5B, listed as REV): 9/4
MUTANT CLONES (%) (HCV RNA; RBV 50, all regions): 29(33%)
Non-Syn/Syn Substitutions (HCV RNA; RBV 50, all regions): 40/14
dose-responsiveness of mutations (HCV RNA; RBV 50 vs 400): not a demonstrable dose-responsiveness
Total Mutations (all regions) (HCV RNA; RBV 400): 31
ERROR GEN RATE (HCV RNA; RBV 400, 5′UTR): 0.7 X 10^−3
MUTANT CLONES (%) (HCV RNA; RBV 400, 5′UTR): 3(21%)
NONSYN/SYN SUBS (HCV RNA; RBV 400, 5′UTR): 0/3
Transition Mutations A to G (HCV RNA; RBV 400, 5′UTR): 1
Transition Mutations G to A (HCV RNA; RBV 400, 5′UTR): 1
MUTANT CLONES (%) (HCV RNA; RBV 400, CORE): 4(20%)
NONSYN/SYN SUBS (HCV RNA; RBV 400, CORE): 5/1
Transition Mutations A to G (HCV RNA; RBV 400, CORE): 1
Transition Mutations C to T (HCV RNA; RBV 400, CORE): 2
Transition Mutations G to A (HCV RNA; RBV 400, CORE): 1
Transition Mutations T to C (HCV RNA; RBV 400, CORE): 1
ERROR GEN RATE (HCV RNA; RBV 400, CORE, listed as RBV): 0.6^4 X 10^−3 and 0.6 X 10^−3
MUTANT CLONES (%) (HCV RNA; RBV 400, E2): 7(35%)
Transition Mutations A to G (HCV RNA; RBV 400, E2): 3
Transition Mutations C to T (HCV RNA; RBV 400, E2): 2
Transition Mutations G to A (HCV RNA; RBV 400, E2): 1
Transition Mutations T to C (HCV RNA; RBV 400, E2): 1
insertions (HCV RNA; RBV 400, E2): 2 insertions
ERROR GEN RATE (HCV RNA; RBV 400, E2, listed as RBV): 1.2 X 10^−3 and 1.2^4 X 10^−3
NONSYN/SYN SUBS (HCV RNA; RBV 400, E2, listed as RBV): 9/4 and 7/5
ERROR GEN RATE (HCV RNA; RBV 400, NS5A): 0.9 X 10^−3
MUTANT CLONES (%) (HCV RNA; RBV 400, NS5A): 2(14%)
NONSYN/SYN SUBS (HCV RNA; RBV 400, NS5A): 3/0
ERROR GEN RATE (HCV RNA; RBV 400, NS5B): 1 X 10^−3
MUTANT CLONES (%) (HCV RNA; RBV 400, NS5B): 6(35%)
NONSYN/SYN SUBS (HCV RNA; RBV 400, NS5B): 5/2
Transition Mutations A to G (HCV RNA; RBV 400, NS5B): 2
Transition Mutations G to A (HCV RNA; RBV 400, NS5B): 1
Transition Mutations T to C (HCV RNA; RBV 400, NS5B): 2
MUTANT CLONES (%) (HCV RNA; RBV 400, all regions): 25(30%)
Non-Syn/Syn Substitutions (HCV RNA; RBV 400, all regions): 20/11
induction of mutations / error generation in the HCV genome (HCV RNA; RBV, all regions tested, listed as RBV): induces mutations across all regions; also recorded: increases error generation
dN/dS (nonsynonymous/synonymous mutation) (HCV RNA; ribavirin at 50 (unit uncertain), all regions tested): 2.85

interferon-α-2b
HCV (−) RNA synthesis (HCV (−) RNA synthesis; doses from 2000 to 15,000 units/well, CV-1 cells): dose-dependent inhibition
Total Mutations (all regions) (HCV RNA; IFN 100,000): 30
MUTANT CLONES (%) (HCV RNA; IFN 100,000, all regions): 19(30%)
Non-Syn/Syn Substitutions (HCV RNA; IFN 100,000, all regions): 20/10
5′ UTR sequences (HCV RNA; IFN 100,000 U): remained invariant
ERROR GEN RATE (HCV RNA; IFN 100,000U, 5′UTR): 0 X 10^−3
MUTANT CLONES (%) (HCV RNA; IFN 100,000U, 5′UTR): 0
NONSYN/SYN SUBS (HCV RNA; IFN 100,000U, 5′UTR): 0
MUTANT CLONES (%) (HCV RNA; IFN 100,000U, CORE): 4(36%)
NONSYN/SYN SUBS (HCV RNA; IFN 100,000U, CORE): 2/2
Transition Mutations T to C (HCV RNA; IFN 100,000U, CORE): 2
ERROR GEN RATE (HCV RNA; IFN 100,000U, CORE, listed as IFN): 0.8^5 X 10^−3 and 0.8 X 10^−3
ERROR GEN RATE (HCV RNA; IFN 100,000U, E2): 2.8^6 X 10^−3
MUTANT CLONES (%) (HCV RNA; IFN 100,000U, E2): 10(83%)
NONSYN/SYN SUBS (HCV RNA; IFN 100,000U, E2): 10/6
Transition Mutations A to G (HCV RNA; IFN 100,000U, E2): 4
Transition Mutations C to T (HCV RNA; IFN 100,000U, E2): 2
Transition Mutations T to C (HCV RNA; IFN 100,000U, E2): 9
stop codon (HCV RNA; IFN 100,000U, E2): 1
ERROR GEN RATE (HCV RNA; IFN 100,000U, NS5A): 1.4 X 10^−3
MUTANT CLONES (%) (HCV RNA; IFN 100,000U, NS5A): 3(16%)
NONSYN/SYN SUBS (HCV RNA; IFN 100,000U, NS5A): 5/1
Transition Mutations A to G (HCV RNA; IFN 100,000U, NS5A): 1
Transition Mutations C to A (HCV RNA; IFN 100,000U, NS5A): 2
Transition Mutations T to C (HCV RNA; IFN 100,000U, NS5A): 1
ERROR GEN RATE (HCV RNA; IFN 100,000U, NS5B): 0.9 X 10^−3
MUTANT CLONES (%) (HCV RNA; IFN 100,000U, NS5B): 2(18%)
NONSYN/SYN SUBS (HCV RNA; IFN 100,000U, NS5B): 3/1
dN/dS (nonsynonymous/synonymous mutation) (HCV RNA; IFN-α, all regions tested): 2.0
HCV core protein synthesis (HCV core protein): dose-responsive inhibition
